Data set [1] can be described thus: Estimated solubility of the salt in organic solvents. Format: physicochemical. As to conditions: for solubility: organic solvent or mixture. How it is done: (b) The Form B salt described in (a) above was also prepared by dissolving, in a vial, 20% w of a sample of the benzoate salt prepared by the method of Example 1(b) (Form A) in a solvent such as methanol (>20 mg/ml), ethanol (>20 mg/ml), n-propanol (>20 mg/ml), isopropanol (8.5 mg/ml) or acetone (9.6 mg/ml). The figures in brackets indicate the estimated solubility of the salt in these solvents. The vial was then sealed and the suspension was homogenised at ambient temperature (20° C.) using a magnet. Stirring and temperature were maintained for a period of at least 7 days after which time a sample of the material obtained was dried and tested by XRPD. XRPD confirmed that there had been complete transformation of Form A to Form B.

Data set [2] is described as follows: Hygroscopicity determination (vapor sorption, SGA-100). As to conditions: room temperature (25° C.). Format: physicochemical. How it is done: The weight change of a test sample at room temperature (25° C.) and at 80% relative humidity (RH) were investigated by recording adsorption-desorption isotherms using a symmetric vapor-sorption analyser SGA-100 (VTI Corporation) using different methods, the main features being: a single sorption/desorption cycle from 0 to 90% RH in 10% RH steps with a dm/dt trigger value of 0.002%, (dm/dt=change in mass with time—when the balance stability is within this value the next step is automatically started, however, if those conditions are not achieved there is a default maximum time for each step of 6 hours). Approximately 2 to 10 mg of the test sample was placed in a sample holder and exposed to different relative humidities.

Data set [3] in a line: Evaluation of the deaggregation properties of micronised salt (TSI Aerodynamic Particle Sizer). Format: physicochemical. How it is done:
This screening study was intended to give some estimation regarding the deaggregation properties of anhydrous N-{2-[((2S)-3-{[1-(4-chlorobenzyl)piperidin-4-yl]amino}-2-hydroxy-2-methylpropyl)oxy]-4-hydroxyphenyl}acetamide benzoate salt, form B (referred to in the remainder of this example as “Form B salt”. The results were compared to the results from an established product powder, the Pulmicort® Turbuhaler® formulation, which was tested identically.
Form B salt was micronised in order to obtain a particle size of less than […]. Pulmicort® Turbuhaler® powder was emptied from the Pulmicort® Turbuhaler®. The latter formulation consists of micronised Budesonide powder that is spheronised into small pellets. The micronization of the Form B salt was performed in a spiral jet mill. Within the inner annular space of the jet mill there is a spiral classification. Fine particles will pass through this classification zone and out through a cyclone at the bottom of the mill. The fraction captured in the exhaust filter of the mill was discarded.
For deaggregation of the powders (both for Pulmicort® Turbuhaler® formulation and the Form B salt), the powders were scrape filled into a simple inhaler device comprising an L-shaped cylindrical channel, comprising a vertical component and a horizontal component.
A Turbuhaler® mouthpiece was fastened to the end of the horizontal component to promote deaggregation of the powder, and the powder to be tested was placed via the vertical channel into the bend of the channel (i.e. the corner of the L-shaped channel). An airflow pulse (see below) then activated the airflow through the vertical component of the channel, entraining the powder located in the bend, and the air-particle mixture is thereafter moved through the horizontal component of the cylinder and finally passed through the Turbuhaler® mouthpiece.
After leaving the Turbuhaler® mouthpiece, the aerosol was transferred to a TSI Aerodynamic Particle Sizer (APS®) with Impactor Inlet 3306 set-up where the aerosol cloud was analysed for its aerodynamic properties and fine particle fraction. The APS set-up was arranged in such a way as to allow withdrawal of doses at optional airflows, followed by counting and aerodynamic classification (ca. 0.3-20 μm) of the particles on a particle by particle basis. Briefly, between the USP throat and the 3306 Impacter Inlet, a three-way pneumatic valve and an NGI pre-separator was positioned. In addition, a tube to a vacuum source via a timer-controlled solenoid valve (Triggor Box) was positioned between the valve and the pre-separator in a T-joint fashion. A short airflow pulse is then generated through the inhaler, USP throat, and pre-separator using the Triggor box. After the end of the air pulse, the pneumatic valve switches so that the aerosol cloud in the pre-separator is drawn into the APS via the 3306 Impacter Inlet for aerodynamic assessment.
Each dose was withdrawn with an airflow pulse of duration 0.4 seconds with maximum airflow at 60 lpm, followed by sampling into the APS instrument. The sampling time in the APS software was set to 20 seconds. The result parameters from the APS were mass median aerodynamic diameter (MMAD), geometric standard deviation (GSD), and a measure of the dose amount (particle counting data converted to mass data using particle density=1) called fine particle dose (FPD).
The two first doses (for each formulation) were released and measured gravimetrically. The mean value of these gravimetric doses, denoted “metered doses” or loaded dose, were used for normalisation of the (FPD), which gives a measure of the fine particle fraction (FPF). The FPF can therefore be used for direct comparison between the two powder formulations (for the instrument set up used). The limit for fine particles was set to an aerodynamic particle size of 7 μm. Seven and five doses were then analysed with the APS for Pulmicort® Turbuhaler® formulation and for Form B salt, respectively. […]

For data set [4], the target named is T1, human CCR1 (Homo sapiens, UniProt P32246).
T1 construct: expressed in transfected cells; membranes
T1 sequence (P32246 1-355): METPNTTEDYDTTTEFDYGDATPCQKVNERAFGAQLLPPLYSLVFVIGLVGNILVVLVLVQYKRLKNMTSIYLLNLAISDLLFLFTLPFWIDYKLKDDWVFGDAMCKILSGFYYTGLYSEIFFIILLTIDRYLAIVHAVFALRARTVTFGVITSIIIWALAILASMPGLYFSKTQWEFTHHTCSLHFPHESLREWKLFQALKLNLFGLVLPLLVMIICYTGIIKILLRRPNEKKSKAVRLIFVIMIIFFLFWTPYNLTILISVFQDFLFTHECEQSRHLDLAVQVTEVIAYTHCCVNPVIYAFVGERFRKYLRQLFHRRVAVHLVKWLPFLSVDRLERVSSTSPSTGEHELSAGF
In words: Human CCR1 binding assay ([125I] MIP-1α displacement, HEK-CCR1 membranes).
Experimental: HEK293 cells, from ECACC, stably expressing recombinant human CCR1 (HEK-CCR1) were used to prepare cell membranes containing CCR1. […] The concentration of membranes of each batch was adjusted to 10% specific binding of 33 pM [^125I] MIP-1α.
100 μL of HEK-CCR1 membranes diluted in assay buffer pH 7.4 (137 mM NaCl (Merck, Cat No 1.06404), 5.7 mM Glucose (Sigma, Cat No G5400), 2.7 mM KCl (Sigma, Cat No P-9333), 0.36 mM NaH2PO4×H2O (Merck, Cat No 1.06346), 10 mM HEPES (Sigma, Cat No H3375), 0.1% (w/v) Gelatine (Sigma, Cat No G2625)) with the addition of 17500 units/L Bacitracin (Sigma, Cat No B 1025) were added to each well of the 96 well filter plate (0.45 μm opaque Millipore cat no MHVB N4550). […] 12 μl assay buffer with 10% DMSO was added to certain wells (without compound) to detect maximal binding (B0).
12 μL [^125I] MIP-1α, diluted in assay buffer to a final concentration in the wells of 33 pM, was added to all wells. The plates with lid were then incubated for 1.5 hrs at room temperature. After incubation the wells were emptied by vacuum filtration (MultiScreen Resist Vacuum Manifold system, Millipore) and washed once with 200 μl assay buffer. After the wash, all wells received an addition of 50 μL of scintillation fluid (OptiPhase “Supermix”, Wallac Oy, Turko, Finland). Bound [^125I] MIP-1α was measured using a Wallac Trilux 1450 MicroBeta counter. […]

Values joined by “and” are separate entries in the source; they are usually repeats but may differ in a detail not shown here. Equal entries are not always repeated. Structures can show the parent of a compound that is named as a salt. Marks after values point to notes of the source that are not given here.

One may read the solubility as the dissolved amount per volume that the medium holds. With `CC(=O)Nc1ccc(O)cc1OC[C@@](C)(O)CNC1CCN(Cc2ccc(Cl)cc2)CC1` [Form A, N-{2-[((2S)-3-{[1-(4-chlorobenzyl)piperidin-4-yl]amino}-2-hydroxy-2-methylpropyl)oxy]-4-hydroxyphenyl}acetamide benzoate], the estimated solubility in data set [1] (acetone) is 9.6 mg/mL; in data set [1] (isopropanol) it was 8.5 mg/mL. The solubility in data set [1] (ethanol), in data set [1] (methanol) and in data set [1] (n-propanol) was more than 20 mg/mL throughout. Besides, the “Water Uptake (% w/w) at 80% RH” value in data set [2] (listed as Anhydrous Form A) is on record as less than 2 % w/w.
Take `CC(=O)Nc1ccc(O)cc1OC[C@@](C)(O)CNC1CCN(Cc2ccc(Cl)cc2)CC1` [Form B salt, N-{2-[((2S)-3-{[1-(4-chlorobenzyl)piperidin-4-yl]amino}-2-hydroxy-2-methylpropyl)oxy]-4-hydroxyphenyl}acetamide benzoate]: the “Water Uptake (% w/w) at 80% RH” value in data set [2] (listed as Anhydrous Form B) is less than 0.8 % w/w. Also, in data set [3], the “Normalized FPF (mean FPF Form B salt/mean FPF Pulmicort Turbuhaler formulation)” value turned out to be 164%^a. Moreover, in data set [3] (in words), the “FPF compared with Pulmicort Turbuhaler formulation” value is “generally higher” and the “de-aggregation properties (conclusion)” value is listed as “advantageous de-aggregation properties”. In data set [3] (mean of doses), the “FPD (fine particle dose)” value stood at 182 µg and the “MMAD (mass median aerodynamic diameter)” value is 2.16 μm. Also, the “MMAD (mass median aerodynamic diameter)” value in data set [3] (single dose, airflow pulse 0.4 seconds, 60 lpm) is 2.28 μm and 2.12 μm and 2.20 μm and 2.10 μm and 2.11 μm.
Usually IC50 stands for the concentration that inhibits the measured activity by half. Lower therefore signals greater potency. With `CC(=O)Nc1ccc(O)cc1OC[C@@](C)(O)CNC1CCN(Cc2ccc(Cl)cc2)CC1` [N-{2-[((2S)-3-{[1-(4-chlorobenzyl)piperidin-4-yl]amino}-2-hydroxy-2-methylpropyl)oxy]-4-hydroxyphenyl}acetamide ditrifluoroacetate], the IC50 in data set [4] was less than 50 nM.

The values are drawn from US8148405B2, “Salt I” (AstraZeneca AB, priority 2005, dated 2012).
